From PubChem BioAssay (NCI) come the findings set out here.

Molecules are shown by their SMILES.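 Tested at 5 concentrations; 48 h exposure; 96-well plates; endpoints linearly interpolated, else capped at highest concentration. Abbreviation: GI50, concentration required for 50% inhibition of growth. TGI is the concentration that stops growth completely.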

What all share (experiment): growth of human tumour cells (NCI), 48 h
In assay [1] the test system is SF-295 CNS.
Assay [2] deals with 786-0 renal.
In assay [3] the test system is UACC-62 melanoma.
The subject of assay [4] is MCF7 breast.
Assay [5] has as its system SK-OV-3 ovarian.
Assay [6] relates to SF-268 CNS.
Assay [7] concerns KM12 colon.
Assay [8] has as its system HCT-15 colon.
Assay [9] relates to IGROV1 ovarian.
The subject of assay [10] is SN12C renal.
In assay [11] the test system is NCI/ADR-RES ovarian.
Assay [12] concerns COLO 205 colon.
The subject of assay [13] is DU-145 prostate.

`COc1ccccc1NC(=S)Nc1cccc(C)n1`: the TGI in [1], in assay [2], in assay [3], in assay [4], in assay [5] and in assay [6] was > 100 µM each time. Also, the TGI in [7], in [8], in [9], in assay [10], in [11] and in [12] was > 100 µM each time. Also, the TGI in assay [13] is > 100 µM.

For `O=c1c2cc([N+](=O)[O-])cnc2sn1-c1ccc(Oc2ccccc2)cc1`, the TGI in assay [1] is > 100 µM; in [2] it was > 100 µM; in assay [3] it was > 100 µM; in assay [4], > 100 µM; in assay [5] it was 87.5 µM; in assay [6], > 100 µM. Besides, the TGI in [7], in [8], in [9], in assay [10], in assay [11] and in assay [12] was > 100 µM in each case. Moreover, in assay [13], the TGI is > 100 µM.

As to `Cc1ccc(S(=O)(=O)Oc2coc(CO)cc2=O)cc1`, the TGI stood at 31.3 µM in [1]; 23.4 µM in assay [2]; 25.3 µM in assay [3]; 22.1 µM in [4]; 37.7 µM in assay [5]; 44.8 µM in [6]. Also, the TGI was 18.7 µM in assay [7]; > 49.5 µM in [8]; 34.5 µM in assay [9]; 25.3 µM in [10]; > 69.5 µM in assay [11]; 28.6 µM in [12]. Besides, the TGI in assay [13] is 27.1 µM.

Consider `CC1=C(C(=O)OC23CC4CC(CC(C4)C2)C3)C(c2ccccc2OC(F)F)C(C(=O)OC23CC4CC(CC(C4)C2)C3)=C(C)N1` (stereo unspecified), for which the TGI in [1], in [2], in assay [3], in [4], in assay [5] and in assay [6] was > 100 µM each time. Besides, the TGI in [7], in assay [8], in [9], in assay [10], in [11] and in [12] was > 100 µM each time. Further, the TGI in assay [13] is > 100 µM.

For `C=CCN1C(=O)N/C(=C\c2ccc(Cl)cc2)C1=O`, the TGI in assay [1], in assay [2], in [3], in assay [4], in assay [5] and in assay [6] was > 100 µM each time. Besides, the TGI in assay [7], in [8], in assay [9], in [10], in [11] and in [12] was > 100 µM in each case. The TGI in assay [13] is > 100 µM.

`COc1c(C(CC(C)C)OC(C)=O)ccc2c1C(=O)OCc1cc(C)cc(O)c1O2` (stereo unspecified): the TGI amounted to 27.8 µM in [1]; 29.2 µM in [2]; 25.5 µM in [3]; 25.6 µM in assay [4]; 31 µM in assay [5]; 27.9 µM in [6]. Also, the TGI in assay [7] is 35.4 µM; in assay [8] it was 23.5 µM; in assay [9] it was 30.4 µM; in assay [10], 27.2 µM; in [11] it was 32.2 µM; in assay [12], 31.8 µM. Moreover, the TGI in assay [13] was 25.8 µM.

For `COC(=O)C(Cc1ccccc1)C(=O)NC(CNC(=O)OCc1ccccc1)C(=O)OCc1ccccc1` (stereo unspecified), the TGI in [1] was > 100 µM; in assay [2], 62.7 µM; in [3], 49.3 µM; in [4], > 100 µM; in [5] it was > 100 µM; in assay [6], > 100 µM. The TGI in assay [7] is > 100 µM; in [8], > 100 µM; in assay [9], > 100 µM; in assay [10], > 100 µM; in [11], > 100 µM; in assay [12] it was 37.7 µM. Further, the TGI in [13] was > 100 µM.

As for `CCC/C(Cl)=N\OC(=O)Nc1ccc(Br)cc1`, the TGI was determined as 30.2 µM in assay [1]; 18.5 µM in assay [2]; 44.7 µM in assay [3]; 19.7 µM in assay [4]; 30.5 µM in assay [5]; 46.2 µM in assay [6]. Moreover, the TGI in assay [7] was 16.2 µM; in [8], 19.9 µM; in assay [9], 32.8 µM; in assay [10] it was 33.8 µM; in assay [11], 40.5 µM; in assay [12], 7.19 µM. Also, the TGI in [13] amounted to 27.2 µM.

As for `C/C(=C\c1csc(C)n1)[C@@H]1C[C@@H]2O[C@]2(C)CCC[C@H](C)[C@H](O)[C@@H](C)C(=O)C(C)(C)[C@@H](O)CC(=O)O1` (tested in a mixture with another compound), the TGI was 0.0369 µM in [1]; > 1 µM in assay [2]; > 1 µM in [3]; > 1 µM in [4]; > 0.72 µM in assay [5]; > 1 µM in assay [6]. The TGI is > 0.44 µM in [7]; > 1 µM in [8]; > 1 µM in assay [9]; > 1 µM in [10]; 0.13 µM in [11]; 0.119 µM in assay [12]. In assay [13], this compound yielded a TGI of 0.0682 µM. Besides, the GI50 in [13] was 0.00528 µM.

Regarding `CCC1=NC(N/N=C/c2ccccc2O)=N/C1=C\c1ccccc1O`, the TGI is > 100 µM in [1]; > 72.1 µM in assay [2]; 48.4 µM in [3]; > 76.1 µM in assay [4]; 76.2 µM in [5]; > 66.9 µM in assay [6]. Besides, the TGI was > 66.1 µM in assay [7]; 12.6 µM in assay [8]; 56.9 µM in [9]; > 83 µM in assay [10]; 24 µM in assay [11]; > 74.8 µM in assay [12]. In assay [13], the TGI is > 64.7 µM.

Turning to `CC(=O)/C(=C/N1C(=O)CC(=O)NC1=S)C(=O)Nc1ccccc1C`, the TGI is > 100 µM in [1]; 50.8 µM in assay [2]; 83.8 µM in assay [3]; > 100 µM in assay [4]; > 100 µM in assay [5]; > 100 µM in [6]. Moreover, the TGI in assay [7], in [8], in assay [9], in assay [10], in assay [11] and in [12] was > 100 µM throughout. Also, in assay [13], the TGI is > 100 µM.

With `CC1(C)C[C@H]2C3=CC[C@@H]4[C@@]5(C)CC[C@H](O)C(C)(C)[C@@H]5CC[C@@]4(C)[C@]3(C)C[C@@H](O)[C@@]23C[C@@H]1OC3=O`, the TGI in assay [1], in [2], in assay [3], in assay [4], in [5] and in assay [6] was > 100 µM each time. Besides, the TGI in assay [7], in assay [8], in [9], in assay [10], in assay [11] and in assay [12] was > 100 µM throughout. Also, the TGI in assay [13] is > 100 µM.

For the compound `CNC(=O)C(C)NC(=O)C(Cc1ccccc1)NC(=O)OC(C)(C)C` (stereo unspecified), the TGI in assay [1], in assay [2], in assay [3], in [4], in assay [5] and in [6] was > 100 µM throughout. For the same compound, the TGI in [7], in assay [8], in assay [9], in assay [10], in [11] and in assay [12] was > 100 µM throughout. The TGI in assay [13] is > 100 µM.

On to `CCCOc1ccc(/C=C/C2=[N+](CCO)CCO2)cc1`, for which the TGI in assay [1], in [2], in [3], in assay [4], in assay [5] and in assay [6] was > 100 µM each time. Moreover, the TGI in assay [7], in assay [8], in assay [9], in assay [10], in assay [11] and in assay [12] was > 100 µM each time. The TGI in [13] was > 100 µM.

In the case of `CCOC(=O)C1C(C(C)C)C2(C#N)C(=N)OC1(C)C2(C#N)C#N` (stereo unspecified), the TGI in assay [1], in assay [2], in assay [3], in [4], in [5] and in assay [6] was > 100 µM in each case. Moreover, the TGI in assay [7] was > 100 µM; in assay [8], > 100 µM; in assay [9], > 100 µM; in [10], > 100 µM; in [11], > 100 µM; in [12], 82.1 µM. In addition, the TGI in [13] is > 100 µM.
